Measured values as given in PubChem BioAssay AID2060616 (Molecular Pharmacology Branch, DTP, NCI, 2025).

Test system: 377384-186-R-J1-PDC complex spheroid viability
Experiment: Anticancer human tumor 377384-186-R-J1-PDC patient-derived pancreatic carcinoma cell line growth inhibition [CLK]
Conditions: for IC50: curve of first compound; for viability, T/C: stronger effect = lower value
Source text: A high-throughput screen of multi-cell type tumor spheroids was designed to identify active combinations of […] and targeted small molecules. Complex spheroids include a stromal component modeled by human endothelial cells (HUVEC) and fibroblasts modeled by human mesenchymal stem cells (MSCs). The concentration ranges selected for each drug and investigational agent were based upon clinically achievable concentrations if the clinical Cmax of the agent was known.
Compounds. The drugs and investigational agents: cirtuvivint (SM08502; NSC835563), CC-671 (NSC850746), vemurafenib (NSC761431), tapotoclax (NSC804041), sotorasib (NSC818433), adagrasib (NSC831453), MRTX-1133 (NSC836407), BAY2416964 (NSC825713), copanlisib (NSC816437), inavolisib (NSC800729), abemaciclib (NSC768073), osimertinib (NSC779217), entinostat (NSC756642), eltanexor (KPT-8602, NSC794443), venetoclax (NSC766270), ceralasertib (NSC777638), bortezomib (NSC756655), olaparib (NSC753686), talazoparib (NSC767125), alisertib (NSC759677), peposertib (NSC802822), gemcitabine (NSC613327), 5-fluorouracil (NSC19893), SN-38 (NSC673596), oxaliplatin (NSC266046), paclitaxel (NSC125973), and doxorubicin (NSC123127), were obtained from the National Cancer Institute (NCI) Developmental Therapeutics Program Chemical Repository. The FDA-approved anticancer drug set is available from the Developmental Therapeutics Program at https://dtp.cancer.gov/organization/dscb/obtaining/available plates.htm. […] The stock solutions were prepared in dimethyl sulfoxide (DMSO, Sigma-Aldrich, St. Louis, MO, cat. D2650), except for the platinum complexes which were prepared in saline (Quality Biological, Gaithersburg, MD, cat. 114-055-101), at 800-fold the tested concentration and stored at -70 degrees C prior to their use. All drugs and investigational agents were tested over a range starting from a high concentration at or near the clinical Cmax and decreasing in half-log increments. If the clinical Cmax for an agent had not been determined, the highest concentration tested was 10 microM.
Cell Culture. All cells were maintained in an incubator at 37 degrees C and 5% CO2 with 95% humidity. The PDC lines were cultured according to standard operating procedures established by the NCI PDMR. Briefly, all PDCs were thawed and cultured in Matrigel-coated flasks prepared with a working solution of 1X Ham's F-12 nutrient mix, without supplementation (Invitrogen, Waltham, MA, cat. 11765054), 100 U/mL penicillin-streptomycin (Invitrogen, cat. 15140122), and 2.5% Matrigel (Corning Inc., Corning, NY, cat. 354248) for the first three passages. The 947758-054-R-J2-PDC line was cultured in 6B/Colon 1A media, which includes advanced DMEM/F-12 (Thermo Fisher Scientific, cat. 12634028), 10 mM HEPES (Thermo Fisher Scientific, cat. 15630080), 1X GlutaMAX supplement (Thermo Fisher Scientific, cat. 35050061), 0.1 mg/mL primocin (InvivoGen, cat. ant-pm-2), 10% defined fetal bovine serum, heat inactivated (HyClone Laboratories Inc., cat. SH30070.03HI), 1.25 mM N-Acetyl-L-cysteine (Sigma-Aldrich, cat. A9165), 10 mM nicotinamide (Sigma-Aldrich, cat. N0636), 1X B-27 supplement (Thermo Fisher Scientific, cat. 17504044), 1X N-2 supplement (Thermo Fisher Scientific, cat. 17502048), and 10 microM Y-27632 dihydrochloride (Tocris Bioscience, cat. 1254). The 876862-298-R-J1-PDC was cultured in 6E media, which includes all 6B/Colon 1A media components plus 50% L-WRN conditioned media (ATCC, cat. CRL-3276), 50 ng/mL recombinant human EGF recombinant protein (hEGF; Thermo Fisher Scientific, cat. PHG0311), 10 ng/mL recombinant human fibroblast growth factor 10 (hGFG-10; PeproTech, cat. 100-26), 1 ng/mL recombinant human fibroblast growth factor 2 (hFGF-2; PeproTech, cat. 100-18B), and 1 µM prostaglandin E2 (PGE2; Tocris, cat. 2296). The 227483-062-R1-J1-PDC line was cultured in Panc media, containing all 6E components except hFGF-2, with the addition of 500 nM SB-431542 (Selleckchem, cat. S1067) and 10 nM gastrin (Tocris, cat. 3006). […]

[1] = second compound 0.0316 µM, first compound 0.0316 µM
[2] = second compound 0.0316 µM, first compound 0.1 µM
[3] = second compound 0.0316 µM, first compound 0.316 µM
[4] = second compound 0.0316 µM, first compound 1 µM
[5] = second compound 0.0316 µM, first compound 3.16 µM
[6] = second compound 0.0316 µM, first compound 10 µM
[7] = second compound 0.1 µM, first compound 0.0316 µM
[8] = second compound 0.1 µM, first compound 0.1 µM
[9] = second compound 0.1 µM, first compound 0.316 µM
[10] = second compound 0.1 µM, first compound 1 µM
[11] = second compound 0.1 µM, first compound 3.16 µM
[12] = second compound 0.1 µM, first compound 10 µM
[13] = second compound 0.316 µM, first compound 0.0316 µM
[14] = second compound 0.316 µM, first compound 0.1 µM
[15] = second compound 0.316 µM, first compound 0.316 µM
[16] = second compound 0.316 µM, first compound 1 µM
[17] = second compound 0.316 µM, first compound 3.16 µM
[18] = second compound 0.316 µM, first compound 10 µM
[19] = second compound 1 µM, first compound 0.0316 µM
[20] = second compound 1 µM, first compound 0.1 µM
[21] = second compound 1 µM, first compound 0.316 µM
[22] = second compound 1 µM, first compound 1 µM
[23] = second compound 1 µM, first compound 3.16 µM
[24] = second compound 1 µM, first compound 10 µM
[25] = second compound 3.16 µM, first compound 0.0316 µM
[26] = second compound 3.16 µM, first compound 0.1 µM
[27] = second compound 3.16 µM, first compound 0.316 µM
[28] = second compound 3.16 µM, first compound 1 µM
[29] = second compound 3.16 µM, first compound 3.16 µM
[30] = second compound 3.16 µM, first compound 10 µM
[31] = second compound 10 µM, first compound 0.0316 µM
[32] = second compound 10 µM, first compound 0.1 µM
[33] = second compound 10 µM, first compound 0.316 µM
[34] = second compound 10 µM, first compound 1 µM
[35] = second compound 10 µM, first compound 3.16 µM
[36] = second compound 10 µM, first compound 10 µM
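Note: spheroids exposed to agents for 7 days before reading.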
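Throughout, for viability, T/C: luminescence signal used as a stand-in for viable cells.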

CCCS(=O)(=O)Nc1ccc(F)c(C(=O)c2c[nH]c3ncc(-c4ccc(Cl)cc4)cc23)c1F + CN1CCN(c2cc(C(=O)Nc3cc4cc(-c5cnn(C)c5)ccc4cn3)ccn2)CC1
IC50 (second compound 0.0316 µM): > 10 µM
IC50 (second compound 0.1 µM): 8.85 µM
IC50 (second compound 0.316 µM): < 0.0316 µM
IC50 (second compound 1 µM): < 0.0316 µM
IC50 (second compound 3.16 µM): < 0.0316 µM
IC50 (second compound 10 µM): < 0.0316 µM
viability, T/C [1]: 122%
viability, T/C [2]: 122%
viability, T/C [3]: 141%
viability, T/C [4]: 140%
viability, T/C [5]: 117%
viability, T/C [6]: 64.8%
viability, T/C [7]: 117%
viability, T/C [8]: 78.5%
viability, T/C [9]: 135%
viability, T/C [10]: 121%
viability, T/C [11]: 97.1%
viability, T/C [12]: 44.4%
viability, T/C [13]: 34.8%
viability, T/C [14]: 21.6%
viability, T/C [15]: 31.2%
viability, T/C [16]: 33.4%
viability, T/C [17]: 28.9%
viability, T/C [18]: 15.4%
viability, T/C [19]: 1.07%
viability, T/C [20]: 3.44%
viability, T/C [21]: 1.53%
viability, T/C [22]: 1.74%
viability, T/C [23]: 1.66%
viability, T/C [24]: 1.39%
viability, T/C [25]: 0.5%
viability, T/C [26]: 0.57%
viability, T/C [27]: 1.26%
viability, T/C [28]: 0.82%
viability, T/C [29]: 0.51%
viability, T/C [30]: 0.48%
viability, T/C [31]: 0.54%
viability, T/C [32]: 0.62%
viability, T/C [33]: 0.58%
viability, T/C [34]: 0.68%
viability, T/C [35]: 0.66%
viability, T/C [36]: 0.26%

COC1C=CCC(C)C(C)S(=O)(=O)NC(=O)c2ccc3c(c2)N(CC2CCC21)CC1(CCCc2cc(Cl)ccc21)CO3 (centres undefined) + CN1CCN(c2cc(C(=O)Nc3cc4cc(-c5cnn(C)c5)ccc4cn3)ccn2)CC1
IC50 (second compound 0.0316 µM): 5.48 µM
IC50 (second compound 0.1 µM): 4.95 µM
IC50 (second compound 0.316 µM): < 0.0316 µM
IC50 (second compound 1 µM): < 0.0316 µM
IC50 (second compound 3.16 µM): < 0.0316 µM
IC50 (second compound 10 µM): < 0.0316 µM
viability, T/C [1]: 114%
viability, T/C [2]: 95.2%
viability, T/C [3]: 96.5%
viability, T/C [4]: 102%
viability, T/C [5]: 84.9%
viability, T/C [6]: 11.8%
viability, T/C [7]: 115%
viability, T/C [8]: 69.2%
viability, T/C [9]: 98%
viability, T/C [10]: 84.5%
viability, T/C [11]: 76.8%
viability, T/C [12]: 10.2%
viability, T/C [13]: 32.5%
viability, T/C [14]: 20.9%
viability, T/C [15]: 24.3%
viability, T/C [16]: 20%
viability, T/C [17]: 20.5%
viability, T/C [18]: 3.02%
viability, T/C [19]: 0.47%
viability, T/C [20]: 1.66%
viability, T/C [21]: 1.4%
viability, T/C [22]: 1.15%
viability, T/C [23]: 0.84%
viability, T/C [24]: 0.75%
viability, T/C [25]: 0.58%
viability, T/C [26]: 0.33%
viability, T/C [27]: 0.31%
viability, T/C [28]: 0.37%
viability, T/C [29]: 0.49%
viability, T/C [30]: 0.39%
viability, T/C [31]: 0.42%
viability, T/C [32]: 0.68%
viability, T/C [33]: 0.44%
viability, T/C [34]: 0.59%
viability, T/C [35]: 0.53%
viability, T/C [36]: 0.17%
